Data on eight compounds can be found in patent publication US20050026849A1, “Water soluble formulations of digitalis glycosides for treating cell-proliferative and other diseases” (priority 2003, published 2005).

Molecules are shown by their SMILES.

Series [1] concerns various cancer cell lines. As to conditions: cited from earlier work.
Series [2] relates to primary cultures of tumor cells from patients and a human cell line panel. As to conditions: cited from earlier work.
Series [3] relates to different human malignant cell lines. To be noted: non-toxic concentrations; cited from earlier work.
For series [4], the system named is androgen-independent human prostate cancer cell lines. To be noted: in vitro; cited from earlier work.
For series [5], the system named is NF-κB. As to conditions: cited from earlier work.
The test system of series [6] is FGF-2 release from DU145 cells. As to conditions: 0.1 ng/mL; cited from earlier work.
The test system of series [7] is human cancer cells. As to conditions: cited from earlier work.
Series [8] is described as follows: Solubilization in aqueous hydroxypropyl-cyclodextrin solution. In kind it is physicochemical. The method, then:
(§1) 100 milligrams of oleandrin was weighed and placed in a 5 mL scintillation tube. 1.5 mL of absolute ethanol was added to the tube and shaken until the oleandrin was completely dissolved. 5 grams of pyrogen free hydroxypropyl-β-cyclodextrin (sold by, Sigma-Aldrich, Inc., St. Louis, Mo., USA) was weighed on an analytical scale and placed in a graduated cylinder. Water was added with shaking until the volume reached 90 ml. The above ethanolic solution of oleandrin was added to the aqueous solution containing hydroxypropyl-β-cyclodextrin with stirring. A clear solution was obtained. Water was added to the clear solution to make the total volume to 100 mL. Thus, 1 mg oleandrin was effectively solubilized in 1 ml of 5% solution of hydroxypropyl-β-cyclodextrin. The solution was sterile-filtered through a 0.22 μm filter. The suspension was frozen below −40° C. and lyophilized. The lyophilized cake was reconstituted with sterile water for injection prior to further use.
The previous experiment was repeated using a 2% solution of hydroxypropyl-β-cyclodextrin prepared as in Example 1. 100 mg of oleandrin was dissolved in 100 mL of water containing 2.5 grams of hydroxypropyl-β-cyclodextrin. The solution was sterile-filtered through a 0.22 μm filter. The solution was frozen below −40° C. and lyophilized. The lyophilized cake was reconstituted with sterile water for injection prior to further use.
The experiment in example 1 was repeated using a 100 mg of Odoroside-A instead of oleandrin. 100 mg of Odoroside-A was dissolved in 5 grams of hydroxypropyl-β-cyclodextrin in 100 mL of water. The solution was sterile-filtered through a 0.22 μm filter. The solution was frozen below −40° C. and lyophilized. The lyophilized cake was reconstituted with sterile water for injection prior to further use.
as §1, with “5mL” for “5 mL”, “1-2” for “1.5”, “2.5” for “5”, “hydroxypropyl-γ-cyclodextrin” for “hydroxypropyl-β-cyclodextrin”, “2.5%” for “5%”, “hydroxypropyl-γ-cyclodextrin.” for “hydroxypropyl-β-cyclodextrin.”
as §1, with “of Proscillaridin-A” for “of oleandrin”, “tube. 1-2” for “tube. 1.5”, “the Proscillaridin-A” for “the oleandrin”, “dissolved. 2” for “dissolved. 5”, “mg Proscillaridin-A” for “mg oleandrin”, “of 2%” for “of 5%”
The previous experiment was repeated using a 5% solution of hydroxypropyl-β-cyclodextrin prepared as in Example 5. […]

The subject of series [9] is FGF-2 release from PC3 cells. To be noted: 0.1 ng/mL; cited from earlier work.
Series [10] in a line: Oleandrin stirred and shaken with water. It is filed as physicochemical. To be noted: 10 mg stirred and shaken with 10 ml of water, after 20 minutes. On the procedure: 10 milligrams (mg) of oleandrin was stirred and shaken with 10 ml of water in a test tube.
The subject of series [11] is AP-1. To be noted: induced by TNF and other agents; cited from earlier work.
For series [12] the following is noted: in vivo; cited from earlier work.
For series [13] the following is noted: oral tablet containing 0.25 mg, humans; cited from earlier work.
The conditions of series [14]: rapidly dissolving γ-cyclodextrin complex (molar ratio 1:4), oral, dogs; cited from earlier work.
Setting [15] is: in 1 ml of 2.5% solution of hydroxypropyl-γ-cyclodextrin.
Setting [16] is: in 50 ml of 9.8% solution of hydroxypropyl-β-cyclodextrin, 70-80 degree centigrade.
Setting [17] is: in 100 mL of water containing 5 grams of hydroxypropyl-β-cyclodextrin.

Consider `C[C@H]1[C@H](C)CC[C@]2(C(=O)O)CC[C@]3(C)C(=CC[C@@H]4[C@@]5(C)CC[C@H](O)C(C)(C)[C@@H]5CC[C@]43C)[C@H]12` [ursolic acid], for which, in series [1], the anti-cancer activity result was “significant anti-cancer activities”.
For the compound `C[C@H]1O[C@@H](O[C@H]2[C@@H](O)C[C@H](O[C@H]3[C@@H](O)C[C@H](O[C@H]4CC[C@@]5(C)[C@H](CC[C@@H]6[C@@H]5CC[C@]5(C)[C@@H](C7=CC(=O)OC7)CC[C@]65O)C4)O[C@@H]3C)O[C@@H]2C)C[C@H](O)[C@@H]1O` [digitoxin], the “selective toxicity solid vs hematological tumor cells” value in series [2] is on record as “selective toxicity against solid tumor cells”. In series [3], the growth and apoptosis result was “inhibits growth and induce apoptosis”.
Consider `C[C@@H]1O[C@@H](O[C@H]2C[C@@H](O)[C@]3(CO)[C@H]4[C@H](O)C[C@]5(C)[C@@H](C6=CC(=O)OC6)CC[C@]5(O)[C@@H]4CC[C@]3(O)C2)[C@H](O)[C@H](O)[C@H]1O` [Ouabain], for which the induction of apoptosis entry in [4] is “induce apoptosis”.
As for `CO[C@H]1C[C@H](O[C@H]2CC[C@@]3(C)[C@H](CC[C@@H]4[C@@H]3CC[C@]3(C)[C@@H](C5=CC(=O)OC5)[C@@H](OC(C)=O)C[C@]43O)C2)O[C@@H](C)[C@@H]1O` [oleandrin, 16b-acetoxy-3b-[(2,6 dideoxy-3-0-methyl-a2-L-arabino-hexopyranosyl)oxy]-14-hydroxy-5β, 14β-card-20(22)-enolide], the “TNF-induced activation of NF-κB” value in [5] is reported as “blocked”. The “inhibition of FGF-2 release” value in [6] is 49.9%; in series [9], 45.7%. Moreover, in series [7], the cell killing result was “able to induce cell killing”. The amount effectively solubilized in [8] (setting [15]) is on record as 1 mg; in series [8] (in 1 ml of 5% solution of hydroxypropyl-β-cyclodextrin), 1 mg; in series [8] (setting [16]) it was 100 mg. The compound also had an amount dissolved in series [8] (in 100 mL of water containing 2.5 grams of hydroxypropyl-β-cyclodextrin (called 2% solution)) of 100 mg. The anti-cancer activity result in [1] is recorded as “significant anti-cancer activities”. In addition, the dissolution in water entry in [10] is recorded as “Appreciable quantities of compound remained out of solution”. For the same compound, in series [4], the induction of apoptosis entry is listed as “induce apoptosis”. In addition, the AP-1 activation result in [11] is “blocked”. Also, the “time of elimination from the body” value in series [12] was “one to two”.
Turning to `CO[C@@H]1C[C@H](O[C@H]2CC[C@@]3(C)[C@H](CC[C@@]45O[C@@]46CC[C@H](C4=CC(=O)OC4)[C@@]6(C)CC[C@H]35)C2)O[C@H](C)[C@@H]1O` [adynerin], in series [1], the anti-cancer activity entry is recorded as “significant anti-cancer activities”.
Regarding `C[C@@H]1O[C@@H](O[C@@H]2C=C3CC[C@@H]4[C@H](CC[C@]5(C)[C@@H](c6ccc(=O)oc6)CC[C@]45O)[C@@]3(C)CC2)[C@H](O)[C@H](O)[C@H]1O` [Proscillaridin-A, Proscillaridin A, reference compound], in series [13], the bioavailability is 20-30%. The figures for the amount effectively solubilized in series [8] (in 1 ml of 2% solution of hydroxypropyl-β-cyclodextrin), in series [8] (setting [15]) and in [8] (setting [16]) were 1 mg, 1 mg and 100 mg, respectively. This compound showed an amount dissolved in [8] (setting [17]) of 100 mg. Besides, in series [2], the “selective toxicity solid vs hematological tumor cells” value is listed as “no selective toxicity”.
As to `C[C@H]1O[C@@H](O[C@H]2[C@@H](O)C[C@H](O[C@H]3[C@@H](O)C[C@H](O[C@H]4CC[C@@]5(C)[C@H](CC[C@@H]6[C@@H]5C[C@@H](O)[C@]5(C)[C@@H](C7=CC(=O)OC7)CC[C@]65O)C4)O[C@@H]3C)O[C@@H]2C)C[C@H](O)[C@@H]1O` [digoxin], the “selective toxicity solid vs hematological tumor cells” value in [2] is recorded as “selective toxicity against solid tumor cells”. For the same compound, in series [14], the “increase of plasma levels” value is “approximately 5.4 fold”. In addition, in series [3], the growth and apoptosis entry is “inhibits growth and induce apoptosis”. For the same compound, in series [4], the induction of apoptosis entry is reported as “induce apoptosis”.
Consider `CO[C@@H]1C[C@H](O[C@H]2CC[C@@]3(C)[C@H](CC[C@@H]4[C@@H]3CC[C@]3(C)[C@@H](C5=CC(=O)OC5)CC[C@]43O)C2)O[C@H](C)[C@@H]1O` [Odoroside-A, Odoroside A], for which the amount dissolved in series [8] (setting [17]) is on record as 100 mg.
